From patent US20230065562A1, “DUAL CONTROLS FOR THERAPEUTIC CELL ACTIVATION OR ELIMINATION” (Bellicum Pharmaceuticals, Inc., priority 2015, published 2023)

Legend:
[1] = system: NF-κB; assay: NF-κB SeAP reporter assay of inducible MyD88/CD40 activity; assay type: cell-based
Description: 293T cells were transfected with 1 μg of reporter construct NF-κB SeAP and 4 μg of the iMC+CARζ construct pBP0774 or the MC-rap-CAR construct pBP1440 using the GeneJuice protocol (Novagen). […] After 24 hours of further incubation SeAP activity was determined from cell supernatants.
HEK 293T cells (1.5×10^5) were seeded on a 100-mm tissue culture dish in 10 mL DMEM4500, supplemented with glutamine, penicillin/streptomycin and 10% fetal calf serum. After 16-30 hours incubation, cells were transfected using Novagen's GeneJuice® protocol. Briefly, for each transfection, 0.5 mL OptiMEM was pipetted into a 1.5-mL microcentrifuge tube and 15 μL GeneJuice reagent added followed by 5 sec. vortexing. Samples were rested 5 minutes to settle the GeneJuice suspension. DNA (5 μg total) was added to each tube and mixed by pipetting up and down four times. Samples were allowed to rest for 5 minutes for GeneJuice-DNA complex formation and the suspension added dropwise to one dish of 293T cells. A typical transfection contains 1 μg NFkB-SEAP (5), 4 μg iMC+CARζ(pBP0774) or 4 μg MC-Rap-CAR (pBP1440) (1).
24 hours following transfection (4.1), 293T cells were split to 96-well plates and incubated with dilutions of dimerizing drugs. Briefly, 100 μL media was added to each well of a 96-well flat-bottom plate. Drugs were diluted in tubes to a concentration 4× the top concentration in the gradient to be place on the plate. […] 100 μL from each drug-containing well was then transferred to the adjacent well and the cycle repeated 10 times to produce a serial two-fold step gradient. The last wells were untreated and serve as a control for basal reporter activity. Transfected 293 cells were then trypsinized, washed with complete media, suspended in media and 100 μL aliquoted to each well containing drug (or no drug). Cells were incubated 24 hours.
24 hours after drug stimulation, 96-well plates were wrapped to prevent evaporation and incubated at 65° C. for 2 hours to inactivate endogenous and serum phosphatases while the heat-stable SeAP reporter remains (3, 12, 14). 100 μL samples from each well were loaded into individual wells of a 96-well assay plate with black sides. Samples were incubated with 0.5 mM 4-methylumbelliferyl phosphate (4-MUP) in 0.5 M diethanolamine at pH 10.0 for 4 to 16 hours. Phosphatase activity was measured by fluorescence with excitation at 355 nm and emission at 460 nm. Data was transferred to a Microsoft Excel spreadsheet for tabulation and graphed with GraphPad Prism.

[2] = system: iRmC9 T cells (pBP1327, GFP-Fluc); assay: Drug titration of rimiducid and rapamycin in mice bearing iRmC9 T cells; assay type: in vivo, mouse; settings: NSG mice; rimiducid 0.00005-5 mg/kg or rapamycin 0.0001-10 mg/kg i.p.; FIGS. 110B & C
Description: In this experiment, iRmC9 T cells were produced by co-transduction with pBP1327 and GFP-Fluc retroviruses from donor 584. […] Ten million iRmC9 T cells were injected IV per mouse (Table 10) (time=−14 hr). […] Vehicle groups received either PBS, 25% solutol in PBS or 5% DMA in PT. IVIS imaging was performed at −10, 0, 6, and 24 hours. Mice were sacrificed and spleens were collected for FACS analysis with hCD3, hCD19 and mCD45 antibodies. […] This observation is similar to that observed in the previous experiment (FIG. 109B) and could be due to the components of the PT.
FIG. 110. […] PBMCs from donor 584 were activated and co-transduced with retroviruses encoding the pBP1327 vector and the GFP-Fluc plasmid. (FIG. 110A) Ten days post-transduction, the cells were analyzed for CD19 and GFP transduction efficiency prior to injection into mice. (FIGS. 110B & C) NSG mice were injected i.v. with 1×10^7 T cells co-transduced with GFP-Fluc per mouse and suicide drugs were injected i.p. the next day. Bioluminescence of cells was assessed at −10, 0, 6, and 24 hours post drug administration. (FIG. 110D) At 24 h post-drug treatment, mice were euthanized and spleens were collected for flow cytometry analysis with antibodies to hCD3, […], and mCD45.

[3] = system: CD123+ THP-1 tumor cells; assay: NSG tumor xenograft model, THP-1-EGFPluc, iMC-CD123.ζ-modified T cells with Rim; assay type: in vivo, mouse; settings: costimulation by systemic rimiducid administration (1 mg/kg i.p. days 0 and 15)
Description: Animal experiments: In vivo efficacy of iMC-CD123.ζ-modified T cells was assessed using an immune-deficient NSG tumor xenograft model. One million EGFPluc-expressing CD123^+ THP-1 tumor cells were injected i.v. into the animals, followed by a single i.v. injection on day 7 with varying non-transduced or iMC-CD123.ζ-modified T cells. Groups receiving CAR-T cells subsequently received i.p. injections of Rim (1 mg/kg) or vehicle only on days 0 and 15 post-T cell injection. Animals were evaluated for THP-1-EGFPluc tumor burden and weight change on a weekly basis using IVIS bioluminescent imaging (BLI) and for T cell persistence by flow cytometry and qPCR at day 30 post-T cell injection.
FIG. 114. (A) PBMCs were activated and transduced with retrovirus including the CD123 iMC-CARζ vector. Twelve days after transduction, CAR expression was determined using anti-Q-bend10 antibody before injection into mice. […] (C) THP1-GFP.Fluc growth was measured using IVIS bioluminescence. (D, E) On day 30, mice were sacrificed and spleens were analyzed for the presence of CAR-T cells by flow cytometry and vector copy number assay.
(B) On day 29, mice were sacrificed and spleens were analyzed for the presence of CAR-T cells by vector copy number assay.

[4] = system: iCasp9-ΔCD19-transduced MSCs; assay: In vivo killing studies of iCasp9-ΔCD19 MSCs in murine model; set-up: species or system SCID mice
Description: All mouse experiments were performed in accordance with the Baylor College of Medicine animal husbandry guidelines. To assess the persistence of modified MSCs in vivo, a SCID mouse model was used in conjunction with an in vivo imaging system. MSCs were transduced with retroviruses coding for the enhanced green fluorescent protein-firefly luciferase (eGFP-FFLuc) gene alone or together with the iCasp9-ΔCD19 gene. Cells were sorted for eGFP positivity by fluorescence activated cell sorting using a MoFlo flow cytometer (Beckman Coulter, Fullerton, Calif.). Doubly transduced cells were also stained with PE-conjugated anti-CD19 and sorted for PE-positivity. SCID mice (8-10 weeks old) were injected subcutaneously with 5×10^5 MSCs with and without iCasp9-ΔCD19 in opposite flanks. […] For in vivo imaging of MSCs expressing eGFP-FFLuc, mice were injected intraperitoneally with D-luciferin (150 mg/kg) and analyzed using the Xenogen-IVIS Imaging System. Total luminescence (a measurement proportional to the total labeled MSCs deposited) at each time point was calculated by automatically defining regions-of-interest (ROIs) over the MSC implantation sites. These ROIs included all areas with luminescence signals at least 5% above background. Total photon counts were integrated for each ROI and an average value calculated. […]

SMILES	EC50 ([1]; MC-rap-CAR construct pBP1440, read-out: EC50 / concentration stimulating NF-κB reporter activity via MC-Rap)	concentration inducing NF-κB reporter via iMC ([1]; iMC+CARζ construct BP774)	IVIS imaging of iRmC9 T cells in dose titration [2]	eradication of CD123+ leukemic cells by iMC-CARζ T cells [3]	proportion of surviving iCasp9-positive cells after one week ([4]; qPCR iCasp9/eGFP copy ratio)	killing / depletion of iCasp9-positive cells in vivo ([4]; two i.p. injections of 50 μg CID 24 h apart)
CC[C@H](C(=O)N1CCCC[C@H]1C(=O)O[C@H](CCc1ccc(OC)c(OC)c1)c1cccc(OCC(=O)NCCNC(=O)COc2cccc([C@@H](CCc3ccc(OC)c(OC)c3)OC(=O)[C@@H]3CCCCN3C(=O)[C@@H](CC)c3cc(OC)c(OC)c(OC)c3)c2)c1)c1cc(OC)c(OC)c(OC)c1 [rimiducid]	> 50 nM	subnanomolar	dose-dependent removal	efficiently eradicated		
CC[C@H](C(=O)N1CCCC[C@H]1C(=O)O[C@H](CCc1ccc(OC)c(OC)c1)c1cccc(OCC(=O)NCC(CNC(=O)COc2cccc([C@@H](CCc3ccc(OC)c(OC)c3)OC(=O)[C@@H]3CCCCN3C(=O)[C@@H](CC)c3cc(OC)c(OC)c(OC)c3)c2)CN(C)C)c1)c1cc(OC)c(OC)c(OC)c1 [AP20187]					0.7%	> 99%
